Source: the supplement of paper PMC10627819

Key:
[1] = system: S. pneumoniae D39V; assay: Bliss interaction score (quartile over a dose matrix) (fitness difference); higher = more antagonism (negative = synergy)
Method in brief: (§1)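 Quartiles of the Bliss score were taken over technical, biological and donor/recipient replicates. That score is observed fitness minus the product of the single-drug fitness values, which were inferred from combination data. Fitness itself is OD595 at entry into stationary phase divided by the plate's robust no-drug mean, with a cap at 1.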

[2] = system: S. aureus DSM 20231; assay: as above
Method in brief: as §1

[3] = system: S. aureus Newman; assay: as above
Method in brief: as §1

[4] = system: B. subtilis 168; assay: as above
Method in brief: as §1

[5] = system: S. pneumoniae D39V; assay: fitness (endpoint OD595 vs no drug) (fraction); higher = more growth
Method in brief: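 Fitness was defined as the optical density at the transition into stationary phase relative to the robust mean of no-drug control wells. Values were capped at 1. Cultures were started at OD595 0.01 in 384-well plates (30 µl, or 55 µl for S. pneumoniae) in TSB, LB Lennox or CY at 37 °C. OD595 was recorded every 30 min over 14 h, with the first reading subtracted as background.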
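Throughout, for Bliss interaction score (quartile over a dose matrix): first quartile when negative (synergy) and third quartile when positive (antagonism).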

Clc1ccc(COC(Cn2ccnc2)c2ccc(Cl)cc2Cl)c(Cl)c1 (stereo not drawn) [Miconazole] + Cc1onc(-c2ccccc2)c1C(=O)N[C@@H]1C(=O)N2[C@@H]1SC(C)(C)[C@@H]2C(=O)O [Oxacillin]
Conditions	Bliss interaction score
[1]	0.0753
[2]	0.0539
[3]	0.0481
[4]	0.0802

fitness, [5]
Conditions	first compound 1.073 µg/mL	first compound 1.25 µg/mL	first compound 2.145 µg/mL	first compound 2.5 µg/mL	first compound 4.29 µg/mL	first compound 5 µg/mL
partner 0.01 µg/mL	≥ 1	0.939	≥ 1	0.938	0.928	0.946
partner 0.02 µg/mL	0.977	0.864	0.906	0.874	0.716	0.892
partner 0.04 µg/mL	–	0.363	–	0.359	0.434	0.386

Clc1ccc(COC(Cn2ccnc2)c2ccc(Cl)cc2Cl)c(Cl)c1 (stereo not drawn) [Miconazole] + CCC(C)C1C(=O)NC(=C)C(=O)NC(C(=O)NC(CSCC(C(=O)N1)NC(=O)/C(=C/C)/NC(=O)C(C(C)CC)N)C(=O)NC2C(SCC(NC(=O)CNC(=O)C3CCCN3C2=O)C(=O)NC(CCCCN)C(=O)NC4C(SCC(NC(=O)CNC(=O)C(NC(=O)C(NC(=O)C(NC(=O)CNC4=O)C)CC(C)C)CCSC)C(=O)NC(CC(=O)N)C(=O)NC(CCSC)C(=O)NC(CCCCN)C(=O)NC5C(SCC6C(=O)NC(C(=O)NC(CSC(C(C(=O)N6)NC(=O)C(NC5=O)C)C)C(=O)NC(CO)C(=O)NC(C(C)CC)C(=O)NC(CC7=CN=CN7)C(=O)NC(C(C)C)C(=O)NC(=C)C(=O)NC(CCCCN)C(=O)O)CC8=CN=CN8)C)C)C)CC(C)C [Nisin]
main component drawn
Conditions	Bliss interaction score
[1]	0.166
[2]	-0.0527
[3]	-0.0601
[4]	0.0476

fitness, [5], main component drawn
Conditions	first compound 1.073 µg/mL	first compound 1.25 µg/mL	first compound 2.145 µg/mL	first compound 2.5 µg/mL	first compound 4.29 µg/mL	first compound 5 µg/mL
partner 0.4275 µg/mL	–	0.979	–	0.998	–	0.987
partner 0.855 µg/mL	–	0.973	–	0.965	–	0.977
partner 1.6 µg/mL	0.264	–	0.16	–	0.172	–
partner 1.71 µg/mL	–	0.0702	–	0.146	–	0.119
partner 3.2 µg/mL	0.0113	–	0.0171	–	0.151	–
partner 6.4 µg/mL	0.0029	–	0.0131	–	0.168	–

Clc1ccc(COC(Cn2ccnc2)c2ccc(Cl)cc2Cl)c(Cl)c1 (stereo not drawn) [Miconazole] + CN[C@@H]1[C@H](O[C@H]2[C@H](O[C@H]3[C@H](O)[C@@H](O)[C@H](N=C(N)N)[C@@H](O)[C@@H]3N=C(N)N)O[C@@H](C)[C@]2(O)C=O)O[C@@H](CO)[C@H](O)[C@H]1O [Streptomycin]
Conditions	Bliss interaction score
[1]	0.0827
[2]	0.0476
[3]	0.0487
[4]	0.0605

fitness, [5]
Conditions	first compound 1.073 µg/mL	first compound 1.25 µg/mL	first compound 2.145 µg/mL	first compound 2.5 µg/mL	first compound 4.29 µg/mL	first compound 5 µg/mL
partner 2 µg/mL	0.978	–	0.977	–	0.936	–
partner 4 µg/mL	0.988	0.909	0.988	0.904	0.946	0.912
partner 8 µg/mL	≥ 1	0.86	≥ 1	0.832	0.932	0.86

fitness, [5], one replicate
Conditions	first compound 1.25 µg/mL	first compound 2.5 µg/mL	first compound 5 µg/mL
partner 2 µg/mL	0.922	0.964	0.977
partner 16 µg/mL	0.712	0.632	0.679

Clc1ccc(COC(Cn2ccnc2)c2ccc(Cl)cc2Cl)c(Cl)c1 (stereo not drawn) [Miconazole] + Cc1cc(NS(=O)(=O)c2ccc(N)cc2)no1 [Sulfamethoxazol]
Conditions	Bliss interaction score
[1]	0.0572
[2]	0.0319
[3]	0.0463
[4]	0.0845

fitness, [5]
Conditions	first compound 1.073 µg/mL	first compound 2.145 µg/mL	first compound 4.29 µg/mL
partner 1 µg/mL	0.989	≥ 1	0.946
partner 2 µg/mL	0.981	0.998	0.923
partner 4 µg/mL	0.999	0.988	0.924

fitness, [5], one replicate
Conditions	first compound 1.25 µg/mL	first compound 2.5 µg/mL	first compound 5 µg/mL
partner 1 µg/mL	0.94	0.966	0.932
partner 2 µg/mL	0.894	0.955	0.908
partner 4 µg/mL	0.892	0.876	0.864

CNC(C)C1CCC(N)C(OC2C(N)CC(N)C(OC3OCC(C)(O)C(NC)C3O)C2O)O1 (stereo not drawn) [Gentamicin] + O=C1CN(/N=C/c2ccc([N+](=O)[O-])o2)C(=O)N1 [Nitrofurantoin]
main component drawn
Conditions	Bliss interaction score
[1]	0.0782
[2]	-0.0432
[3]	0.0572
[4]	-0.138

fitness, [5], main component drawn
Conditions	partner 1.285 µg/mL	partner 2 µg/mL	partner 2.57 µg/mL	partner 4 µg/mL	partner 8 µg/mL
first compound 2 µg/mL	0.948	0.861	0.951	0.791	0.45
first compound 4 µg/mL	0.943	0.897	0.945	0.747	0.409
first compound 8 µg/mL	0.953	0.831	0.957	0.659	0.368

[5], partner 5.14 µg/mL, one replicate, main component drawn
Conditions	fitness
first compound 2 µg/mL	0.945
first compound 4 µg/mL	0.947
first compound 8 µg/mL	0.918

CNC(C)C1CCC(N)C(OC2C(N)CC(N)C(OC3OCC(C)(O)C(NC)C3O)C2O)O1 (stereo not drawn) [Gentamicin] + C[C@@H](O)[C@H]1C(=O)N2C(C(=O)O)=C(SCCNC=N)C[C@H]12 [Imipenem]
main component drawn
Conditions	Bliss interaction score
[1]	0.0671
[2]	0.0591
[3]	-0.0478
[4]	0.199

fitness, [5], main component drawn
Conditions	partner 0.005 µg/mL	partner 0.0065 µg/mL	partner 0.01 µg/mL	partner 0.013 µg/mL	partner 0.02 µg/mL	partner 0.026 µg/mL
first compound 2 µg/mL	0.924	0.989	0.915	≥ 1	0.914	0.661
first compound 4 µg/mL	0.928	0.971	0.922	0.996	0.92	0.964
first compound 8 µg/mL	0.895	0.917	0.864	0.931	0.874	0.892

CNC(C)C1CCC(N)C(OC2C(N)CC(N)C(OC3OCC(C)(O)C(NC)C3O)C2O)O1 (stereo not drawn) [Gentamicin] + CO[C@H]1/C=C/O[C@@]2(C)Oc3c(C)c(O)c4c(O)c(c(/C=N/N5CCN(C)CC5)c(O)c4c3C2=O)NC(=O)/C(C)=C\C=C\[C@H](C)[C@H](O)[C@@H](C)[C@@H](O)[C@@H](C)[C@H](OC(C)=O)[C@@H]1C [Rifampicin]
main component drawn
Conditions	Bliss interaction score
[1]	0.083
[2]	0.0516
[3]	0.0286
[4]	0.225

[5], partner 0.025 µg/mL, main component drawn
Conditions	fitness
first compound 2 µg/mL	≥ 1
first compound 4 µg/mL	≥ 1
first compound 8 µg/mL	0.935

[5], partner 0.2 µg/mL, one replicate, main component drawn
Conditions	fitness
first compound 2 µg/mL	0
first compound 4 µg/mL	0
first compound 8 µg/mL	0

CC1=C(C(=O)O)N2C(=O)[C@@H](NC(=O)[C@H](N)c3ccccc3)[C@H]2SC1 [Cephalexin] + Clc1ccc(COC(Cn2ccnc2)c2ccc(Cl)cc2Cl)c(Cl)c1 [Miconazole]
Conditions	Bliss interaction score
[1]	-0.0715
[2]	0.0471
[3]	0.063
[4]	0.0898

fitness, [5], one replicate
Conditions	first compound 0.125 µg/mL	first compound 0.25 µg/mL	first compound 0.5 µg/mL
partner 1.25 µg/mL	0.987	0.878	0.858
partner 2.5 µg/mL	0.885	0.826	0.819
partner 5 µg/mL	0.89	0.867	0.893

fitness, [5]
Conditions	first compound 1 µg/mL	first compound 2 µg/mL	first compound 4 µg/mL
partner 1.073 µg/mL	–	–	0.0455
partner 2.145 µg/mL	–	–	0.0466
partner 4.29 µg/mL	0.482	0.37	0.234

Clc1ccc(COC(Cn2ccnc2)c2ccc(Cl)cc2Cl)c(Cl)c1 (stereo not drawn) [Miconazole] + CC1=C\[C@@H](O)CC(=O)Cc2nc(co2)C(=O)N2CCC=C2C(=O)O[C@H](C(C)C)[C@H](C)/C=C/C(=O)NC\C=C\1 [Virginiamycin M1]
Conditions	Bliss interaction score
[1]	0.0555
[2]	0.0731
[3]	0.0829
[4]	0.103

fitness, [5]
Conditions	first compound 1.073 µg/mL	first compound 1.25 µg/mL	first compound 2.145 µg/mL	first compound 2.5 µg/mL	first compound 4.29 µg/mL	first compound 5 µg/mL
partner 0.5 µg/mL	≥ 1	–	≥ 1	–	0.882	–
partner 1 µg/mL	≥ 1	–	≥ 1	–	≥ 1	–
partner 2 µg/mL	0.983	0.902	≥ 1	0.903	0.988	0.879

fitness, [5], one replicate
Conditions	partner 0.15 µg/mL	partner 0.3 µg/mL	partner 0.5 µg/mL	partner 1 µg/mL
first compound 1.25 µg/mL	0.949	0.905	≥ 1	≥ 1
first compound 2.5 µg/mL	0.95	0.902	≥ 1	≥ 1
first compound 5 µg/mL	0.906	0.904	0.997	0.891

C[n+]1ccc(-c2cc[n+](C)cc2)cc1 [Paraquat] + CO[C@H]1/C=C/O[C@@]2(C)Oc3c(C)c(O)c4c(O)c(c(/C=N/N5CCN(C)CC5)c(O)c4c3C2=O)NC(=O)/C(C)=C\C=C\[C@H](C)[C@H](O)[C@@H](C)[C@@H](O)[C@@H](C)[C@H](OC(C)=O)[C@@H]1C [Rifampicin]
Conditions	Bliss interaction score
[1]	-0.0393
[2]	0.0593
[3]	0.0217
[4]	0.0618

[5], partner 0.025 µg/mL, one replicate
Conditions	fitness
first compound 1.5 µg/mL	0.869
first compound 3 µg/mL	0.833
first compound 6 µg/mL	0.842

fitness, [5]
Conditions	first compound 1.5 µg/mL	first compound 3 µg/mL	first compound 6 µg/mL
partner 0.05 µg/mL	–	0.882	0.897
partner 0.2 µg/mL	0.0862	0.102	0.0798

Clc1ccc(COC(Cn2ccnc2)c2ccc(Cl)cc2Cl)c(Cl)c1 (stereo not drawn) [Miconazole] + C[n+]1ccc(-c2cc[n+](C)cc2)cc1 [Paraquat]
Conditions	Bliss interaction score
[1]	-0.0527
[2]	0.0436
[3]	-0.0378
[4]	0.0318

fitness, [5]
Conditions	first compound 1.073 µg/mL	first compound 2.145 µg/mL	first compound 4.29 µg/mL
partner 1.5 µg/mL	≥ 1	0.999	0.925
partner 3 µg/mL	≥ 1	0.987	0.908
partner 6 µg/mL	0.979	0.983	0.824

fitness, [5], one replicate
Conditions	first compound 1.25 µg/mL	first compound 2.5 µg/mL	first compound 5 µg/mL
partner 1.5 µg/mL	≥ 1	0.983	0.944
partner 3 µg/mL	≥ 1	≥ 1	0.997
partner 6 µg/mL	0.957	0.932	0.885
